Data from patent US7342039B2, “Substituted indole oximes” (Wyeth, priority 2003, dated 2008).

Columns and labels:
[1] = target: human PAI-1 (Homo sapiens, UniProt P05121); experiment: Assay for determining the IC50 of inhibition of PAI-1 (antibody detection of active PAI-1 bound to tPA-coated plate); format: binding; conditions: human PAI-1 50 ng/ml, pH 7.5
Description: Assay for determining the IC50 of inhibition of PAI-1. This assay is based upon the non-SDS dissociable interaction between tPA and active PAI-1. Assay plates are initially coated with human tPA (10 μg/ml). Test compounds are dissolved in DMSO at 10 mM, then diluted with physiologic buffer (pH 7.5) to a final concentration of 1-50 μM. The test compounds are incubated with human PAI-1 (50 ng/ml) for 15 minutes at room temperature. The tPA-coated plate is washed with a solution of 0.05% Tween 20 and 0.1% BSA, then the plate is blocked with a solution of 3% BSA. An aliquot of the test compound/PAI-1 solution is then added to the tPA-coated plate, incubated at room temperature for 1 hour, and washed. Active PAI-1 bound to the plate is assessed by adding an aliquot of a 1:1000 dilution of the 33B8 monoclonal antibody against human PAI-1, and incubating the plate at room temperature for 1 hour (Molecular Innovations, Royal Oak, Mich.). The plate is again washed, and a solution of goat anti-mouse IgG-alkaline phosphatase conjugate is added at a 1:50,000 dilution in goat serum. The plate is incubated 30 minutes at room temperature, washed, and a solution of alkaline phosphatase substrate is added. The plate is incubated 45 minutes at room temperature, and color development is determined at OD405 nm. The quantitation of active PAI-1 bound to tPA at varying concentrations of the test compound is used to determine the IC50. Results are analyzed using a logarithmic best-fit equation. The assay sensitivity is 5 ng/ml of human PAI-1 as determined from a standard curve ranging from 0-100 ng/ml.

[2] = target: T1, recombinant human plasminogen activator inhibitor-1 (PAI-1) (Homo sapiens, UniProt P05121); experiment: Screening for PAI-1 inhibition (chromogenic residual tPA activity, Spectrozyme-tPA); format: biochemical; conditions: 25 μM test compound; 140 nM PAI-1, 70 nM tPA, pH 6.6
T1 construct: purchased Molecular Innovations, Royal Oak, Mich
T1 sequence (P05121 24-402): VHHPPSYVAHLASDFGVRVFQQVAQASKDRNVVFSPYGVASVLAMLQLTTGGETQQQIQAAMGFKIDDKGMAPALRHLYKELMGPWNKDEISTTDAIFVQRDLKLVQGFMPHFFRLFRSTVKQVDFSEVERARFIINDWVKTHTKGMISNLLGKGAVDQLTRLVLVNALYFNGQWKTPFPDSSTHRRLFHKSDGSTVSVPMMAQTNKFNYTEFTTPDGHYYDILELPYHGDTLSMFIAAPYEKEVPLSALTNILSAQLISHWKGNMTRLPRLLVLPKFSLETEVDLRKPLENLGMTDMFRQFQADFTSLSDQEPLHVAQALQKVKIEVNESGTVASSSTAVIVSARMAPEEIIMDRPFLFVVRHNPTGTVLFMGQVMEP
Description: Screening for PAI-1 inhibition. Test compounds are dissolved in DMSO at a final concentration of 10 mM, then diluted 100× in physiologic buffer. The inhibitory assay is initiated by the addition of the test compound (1-100 μM final concentration, maximum DMSO concentration of 0.2%) in a pH 6.6 buffer containing 140 nM recombinant human plasminogen activator inhibitor-1 (PAI-1; Molecular Innovations, Royal Oak, Mich.). Following a 1 hour incubation at room temperature, 70 nM of recombinant human tissue plasminogen activator (tPA) is added, and the combination of the test compound, PAI-1 and tPA is incubated for an additional 30 minutes. Following the second incubation, Spectrozyme-tPA (American Diagnostica, Greenwich, Conn.), a chromogenic substrate for tPA, is added and absorbance read at 405 nm at 0 and 60 minutes. Relative PAI-1 inhibition is equal to the residual tPA activity in the presence of the test compounds and PAI-1. Control treatments include the complete inhibition of tPA by PAI-1 at the molar ratio employed (2:1), and the absence of any effect of the test compound on tPA alone.

human PAI-1, sequence (P05121 24-402): as above

SMILES: O=C(O)c1ccc(CO/N=C/c2cc3ccccc3n2Cc2ccccc2)cc1Br [Compound 4, 4-[({[(1E)-(1-benzyl-1H-indol-2-yl)methylidene]amino}oxy)methyl]-2-bromobenzoic acid]
- melting point: 148 to 149 °C
- IC50 [1]: 12.3 µM

SMILES: O=C(O)c1ccc(CO/N=C/c2cn(Cc3ccccc3)c3ccccc23)cc1Br [Compound 3, 4-[({[(1E)-(1-benzyl-1H-indol-3-yl)methylidene]amino}oxy)methyl]-2-bromobenzoic acid]
- IC50 [1]: 29.2 µM

SMILES: CC(C)(C)c1ccc(C(=O)Nc2cc(OCCCO/N=C/c3cn(Cc4ccccc4)c4ccccc34)ccc2C(=O)O)cc1 [Compound 1, 4-[3-({[(1E)-(1-benzyl-1H-indol-3-yl)methylidene]amino}oxy)propoxy]-2-[(4-tert-butylbenzoyl)amino]benzoic acid]
- IC50 [1]: 11.8 µM

SMILES: O=C(O)c1ccc(OCCCO/N=C/c2cc3ccccc3n2Cc2ccccc2)cc1O [Compound 5, 4-[3-({[(1E)-(1-benzyl-1H-indol-2-yl)methylidene]amino}oxy)propoxy]-2-hydroxybenzoic acid]
- melting point: 175 to 176 °C (dec.)
- IC50 [1]: 22.4 µM

SMILES: O=C(O)c1ccc(OCCCO/N=C/c2cn(Cc3ccccc3)c3ccccc23)cc1O [Compound 2, 4-[3-({[(1E)-(1-benzyl-1H-indol-3-yl)methylidene]amino}oxy)propoxy]-2-hydroxybenzoic acid]
- IC50 [1]: 21.6 µM

SMILES: O=C(O)c1ccc(OCCCO/N=C/c2cn(Cc3ccccc3)c3ccccc23)c(-c2ccc(C(F)(F)F)cc2)c1 [Compound 6, 6-[3-({[(1E)-(1-benzyl-1H-indol-3-yl)methylidene]amino}oxy)propoxy]-4′-(trifluoromethyl)-1,1′-biphenyl-3-carboxylic acid]
- inhibition at 25 µM [2]: 55%
- melting point: 193 to 194 °C

SMILES: Cc1c(/C=N/OCc2ccc(C(=O)O)c(Br)c2)c2ccccc2n1C [Compound 9, 2-bromo-4-[({[(1E)-(1,2-dimethyl-1H-indol-3-yl)methylidene]amino}oxy)methyl]benzoic acid]
- inhibition at 25 µM [2]: 34%
- melting point: 165 to 166 °C

SMILES: Cc1c(/C=N/OCCCOc2ccc(CC(=O)O)cc2)c2ccccc2n1C [Compound 7, {4-[3-({[(1E)-(1,2-dimethyl-1H-indol-3-yl)methylidene]amino}oxy)propoxy]phenyl}acetic acid]
- inhibition at 25 µM [2]: 54%

SMILES: O=C(O)c1ccc(OCCCO/N=C/c2cc3ccccc3n2Cc2ccccc2)c(-c2ccc(C(F)(F)F)cc2)c1 [Compound 8, 6-[3-({[(1E)-(1-benzyl-1H-indol-2-yl)methylidene]amino}oxy)propoxy]-4′-(trifluoromethyl)-1,1′-biphenyl-3-carboxylic acid]
- inhibition at 25 µM [2]: 100%
- melting point: 196 to 197 °C
